US11980774B2, “Illumination devices and related methods for phototherapeutic light treatments in the presence of vitamins” (priority 2021, dated 2024)
Entries after “also recorded” stand apart in the source; their conditions may differ. Read-outs that look alike come from different tables or passages of the source.

Experiments:
[1] = tested on: influenza A; type: cell-based; settings: for reduction in viral loads of influenza A: 425 nm light 30 J/cm^2
[2] = tested on: influenza B; settings: 10 μM riboflavin; 425 nm light 30 J/cm^2; FIG. 6F
[3] = tested on: human coronavirus OC43 (HCoV-OC43); experiment: 425 nm light inhibition of HCoV-OC43 in the presence of vitamins in artificial saliva, virus titer (PFU/mL); type: cell-based; settings: 10 μM RFN in artificial saliva, doses as low as 7.5 J/cm^2 (up to 45 J/cm^2), FIG. 1B
Excerpt: FIGS. 1A to 1D are provided in the context of HCoV-OC43, which is generally known as one of the viruses associated with the common cold. FIG. 1A is a chart illustrating an experimental control where light treatments were applied to HCoV-OC43 samples in the absence of any vitamins. […] A first sample included HCoV-OC43 in only its corresponding media, and the other two samples further included different artificial saliva sources (labeled as Saliva 1 and Saliva 2 in FIG. 1A).
FIG. 1B is a chart illustrating light treatments on HCoV-OC43 samples where various amounts of riboflavin (abbreviated as RFN) were diluted in a same type of artificial saliva and added to the HCoV-OC43 samples.
FIG. 1C is a chart illustrating light treatments on HCoV-OC43 samples where various amounts of ascorbate (abbreviated as AA) and 10 μM of RFN were diluted in a same type of artificial saliva and added to the HCoV-OC43 samples. […] The constant amount of RFN (10 μM) was selected based on the improvements illustrated in FIG. 1B.
FIG. 1D is a chart illustrating light treatments on HCoV-OC43 samples where various amounts of ascorbate were diluted in a same type of artificial saliva and added to the HCoV-OC43 samples in the absence of riboflavin.

[4] = tested on: MERS-CoV; type: cell-based; settings: 1 μM riboflavin with various amounts of ascorbate in artificial saliva; 425 nm light 15 J/cm^2; FIG. 4B
[5] = tested on: human rhinovirus 1B; type: cell-based

## Cc1cc2nc3c(=O)[nH]c(=O)nc-3n(C[C@H](O)[C@H](O)[C@H](O)CO)c2cc1C [riboflavin]
[1]; 0 J/cm^2 (no light), 0.1-10 μM riboflavin, FIG. 6E
  inhibition in viral load of influenza A by riboflavin dosing alone: some inhibition
[1]; 1 μM riboflavin, FIG. 6E
  reduction in viral loads of influenza A: some reduction
[1]; 10 μM riboflavin, FIG. 6E
  reduction in viral loads of influenza A: substantial reduction; also recorded: dramatic reduction
[1]; 10 μM riboflavin, 425 nm light 32 J/cm^2, FIG. 6D
  change in viral loads of influenza A: dramatic decreases
[2]
  reduction in viral loads of influenza B: dramatic reduction
[3]
  change in HCoV-OC43 viral load compared with the 0 μM RFN sample: significant decreases
[4]
  reductions in viral loads of MERS-CoV: greater than 99.999%
[5]; 10 μM riboflavin with various ascorbate in Saliva 2, 425 nm light 32 J/cm^2, FIG. 5B
  reduction in viral loads of human rhinovirus 1B: some reduction
[5]; 0.1, 1, 10 μM RFN in Saliva 1, 425 nm light up to 30 J/cm^2, FIG. 5A
  influence on viral loads of human rhinovirus 1B: little to no influence
